Test results: US4333930A, “Orthoarylideneaminophenethylamines and pharmaceutical compositions” (priority 1980, dated 1982)
Read-outs that look alike come from different tables or passages of the source.

Legend:
phenylbenzoquinone (PBQ) = test: Analgesic activity using phenylbenzoquinone (PBQ) as noxious agent, Table 2; type: in vivo, male Swiss mouse; details: for inhibition in vivo at 50 mg/kg: read-out: % of analgesic activity, 50 mg/kg, male Swiss mouse, PBQ
Description: The analgesic activity was determined with the male Swiss mouse using phenylbenzoquinone (PBQ) (a variation of the method of Siegmund et al, Proc. Soc. Exp. Med., […], 95, 729-31) as the noxious agent. Twenty-eightminutes after having administered the test products in a suspension in a 6% gum base, the PBQ solution was injected. The mice were then observed ca. 5 mn. for the next five minutes.
% of analgesic activity as a function of
the dose expressed in mg/kg

[1] = Oral toxicity (mortality) in the mouse, Table 1; type: in vivo; details: mouse, in vivo, po, Swiss mice, 14 days
Description: (§1) The mortality percentages caused by the products of the present invention administered orally to Swiss mice are shown in Table 1. The animals, free of specific pathological organism were housed in an air conditioned room from 24 to 48 hours before the start of the experiments. They were divided up into lots of 5 males and 5 females. With the animals unfed for 24 hours, the substances were administered intragastrically in a base of 6% gum arabic in a volume equal to 0.1 ml for 10 g of animal weight. The mortality was recorded at 14 days.
(§2) % of mortality as a function of the dose

Swiss mice = test: Oral toxicity (mortality) in the mouse, Table 1; type: in vivo; details: 14 days, 20160 min
Description: as §1, §2

[2] = tested on: ptosis induced by reserpine; test: Antagonism of ptosis induced by reserpine, Table 6; type: in vivo; details: oral, read-out: % of inhibition of ptosis induced by reserpine
Excerpt: (§3) The psychotropic profile of the present invention products has been characterized with the animals in numerous tests some of whose results are shown hereinafter. The products of the invention were always administered orally in 6% gum base.
Certain tests made it possible to show antidepressive activities. These are tests of antagonism to the effects of reserpine, oxotremorine (according to Everett G. M. et al, Science, 1956, 124, 79 and Levy J. et al, Therapie 1965, 20, 265) and to despair (according to Porsolt P. D. et al, Eur. J. Pharmacol., 1978, 47, 379-91).
% of inhibition of ptosis induced by reserpine
as a function of the dose administered orally

[3] = tested on: number of displacements of the animal; test: Four plates test (anxiolytic activity), Table 5; type: in vivo; details: oral, mouse
Excerpt: as §3
A certain number of products manifest an anxiolytic activity evidenced in the test with the four plates with the mouse (Table 5).
% of increase in the number of displacements of the
animal as a function of the dose expressed in mg/kg

[4] = tested on: number of escapes the animal made in 5 minutes; test: Escape test, Table 3; type: in vivo, mouse; details: 5 min, oral, mouse, 5 minutes, read-out: % of activity (variation of the number of escapes)
Excerpt: The products of the invention were always administered orally in 6% gum base.
The notation NS signifies that the difference between the results noted for the product and the results noted for the excipient alone is not significant at the threshold 0.05 according to the Student t Test.

[5] = Mus musculus, read-out: % of analgesic activity, 100 mg/kg, male Swiss mouse, PBQ

For Cc1ccc(C=Nc2cc3c(cc2CCN(C)C)OCO3)s1 [COR 01 169], which inhibition in vivo at 50 mg/kg (phenylbenzoquinone (PBQ); Mus musculus) is on record?
Its inhibition in vivo at 50 mg/kg is 7%.

What about the inhibition in vivo at 100 mg/kg (phenylbenzoquinone (PBQ); [5]) of the same compound?
Its inhibition in vivo at 100 mg/kg is 43%.

What about the mortality at 336 h ([1]; 750 mg/kg) of the same compound?
Its mortality at 336 h is 50%.

And the mortality at 336 h ([1]; 1000 mg/kg)?
Its mortality at 336 h is 20%.

What about the mortality at 336 h ([1]; 1500 mg/kg) of the same compound?
Its mortality at 336 h is 80%.

For CN(C)CCc1cc2c(cc1N=Cc1cccnc1)OCO2 [COR 01 201, 6-dimethylaminoethyl N-(pyridylidene-3)-1,3-benzodioxole-5-ylamine], which “% of mortality” value (Swiss mice; 1000 mg/kg) is on record?
Its value is 10%.

What about the mortality at 336 h ([1]; 2000 mg/kg) of the same compound?
The mortality at 336 h was 30%.

Which mortality at 336 h ([1]; 500 mg/kg) does the source give for CN(C)CCc1cc2c(cc1N=Cc1ccc(Cl)cc1)OCO2 [COR 01 208] here?
The mortality at 336 h was 0%.

And the mortality at 336 h ([1]; 750 mg/kg)?
Its mortality at 336 h is 30%.

What about the mortality at 336 h ([1]; 1000 mg/kg) of the same compound?
The mortality at 336 h was 20%.

And the mortality at 336 h ([1]; 1500 mg/kg)?
Its mortality at 336 h is 20%.

And the mortality at 336 h ([1]; 2000 mg/kg)?
The mortality at 336 h was 80%.

For CN(C)CCc1cc2c(cc1N=Cc1cccs1)OCO2 [COR 01 163], which “% of analgesic activity” value (phenylbenzoquinone (PBQ); 50 mg/kg, male Swiss mouse, PBQ) is on record?
The value was 17.5%.

And the “% of mortality” value (Swiss mice; 150 mg/kg)?
Its value is 25%.

What about the “% of mortality” value (Swiss mice; 250 mg/kg) of the same compound?
Its value is 70%.

What about the “% of mortality” value (Swiss mice; 500 mg/kg) of the same compound?
The value was 100%.

Which mortality at 336 h ([1]; 750 mg/kg) does the source give for C(=Cc1ccccc1)C=Nc1cc2c(cc1CCN1CCCC1)OCO2 [COR 01 200] here?
The mortality at 336 h was 0%.

What about the mortality at 336 h ([1]; 1000 mg/kg) of the same compound?
The mortality at 336 h was 10%.

And the mortality at 336 h ([1]; 1500 mg/kg)?
Its mortality at 336 h is 70%.

What about the change in vivo at 25 mg/kg ([2]; 25 mg/kg) of the same compound?
The change in vivo at 25 mg/kg was -28%.

And the change in vivo at 100 mg/kg ([2]; 100 mg/kg)?
The change in vivo at 100 mg/kg was -24%.

And the “% of increase in the number of displacements of the animal” value (“% of increase” below) ([3]; 5 mg/kg)?
The value was “+112%”.

And the “% of increase” value ([3]; 10 mg/kg)?
Its value is “+180%”.

What about the “% of increase” value ([3]; 20 mg/kg) of the same compound?
Its value is “+292%”.

What about the “% of increase” value ([3]; 25 mg/kg) of the same compound?
The value was “+142%”.

And the “% of increase” value ([3]; 50 mg/kg)?
The value was “+84%”.

And the change in vivo at 10 mg/kg ([4]; 10 mg/kg)?
Its change in vivo at 10 mg/kg is 25%.

And the change in vivo at 50 mg/kg ([4]; 50 mg/kg)?
The change in vivo at 50 mg/kg was 38%.

Which results are given for C(=Nc1cc2c(cc1CCN1CCCCC1)OCO2)c1cccs1 [COR 01 175, 6-(2-N-piperidinoethyl) N-(thienylidene-2)-1,3-benzodioxole-5-ylamine]?
inhibition in vivo at 100 mg/kg (phenylbenzoquinone (PBQ); Mus musculus, 100 mg/kg, male Swiss mouse, PBQ, read-out: % of analgesic activity): 13%; inhibition in vivo at 200 mg/kg (phenylbenzoquinone (PBQ); Mus musculus, 200 mg/kg, male Swiss mouse, PBQ, read-out: % of analgesic activity): 71%; mortality at 336 h ([1]; 250 mg/kg): 0%; mortality at 336 h ([1]; 500 mg/kg): 10%; mortality at 336 h ([1]; 750 mg/kg): 10%

Which mortality at 336 h ([1]; 1500 mg/kg) does the source give for CN(C)CCc1ccccc1N=CC=Cc1ccccc1 [COR 01 185, N-cinnamylidene 2-(2-N,N,-dimethylaminoethyl)aniline] here?
The mortality at 336 h was 0%.

What about the mortality at 336 h ([1]; 2000 mg/kg) of the same compound?
The mortality at 336 h was 100%.

For CN(C)CCc1cc2c(cc1N=Cc1ccc(Cl)c(Cl)c1)OCO2 [COR 01 207], which mortality at 336 h ([1]; 750 mg/kg) is on record?
Its mortality at 336 h is 0%.

What about the mortality at 336 h ([1]; 1000 mg/kg) of the same compound?
The mortality at 336 h was 20%.

What about the mortality at 336 h ([1]; 1500 mg/kg) of the same compound?
The mortality at 336 h was 20%.

And the mortality at 336 h ([1]; 2000 mg/kg)?
The mortality at 336 h was 40%.

Which inhibition in vivo at 50 mg/kg (phenylbenzoquinone (PBQ); Mus musculus) does the source give for CN(C)CCc1cc2c(cc1N=Cc1ccc(Br)s1)OCO2 [COR 01 181] here?
The inhibition in vivo at 50 mg/kg was 25%.

And the inhibition in vivo at 100 mg/kg (phenylbenzoquinone (PBQ); [5])?
The inhibition in vivo at 100 mg/kg was 42%.

And the mortality at 336 h ([1]; 250 mg/kg)?
The mortality at 336 h was 0%.

And the mortality at 336 h ([1]; 500 mg/kg)?
Its mortality at 336 h is 30%.

What does the source list for CN(C)CCc1cc2c(cc1N=Cc1cccs1)OCO2 [COR 01 179]?
% of mortality (Swiss mice; 250 mg/kg): 10%; % of mortality (Swiss mice; 500 mg/kg): 90%
